# Results published in PubChem BioAssay (NCI).
#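 How tested: cells in 96-well plates exposed to compound for 48 hours at five concentrations. Abbreviation: GI50, concentration required for 50% inhibition of growth. TGI denotes the concentration required for complete inhibition of growth.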
# Assays:
# Experiment in all cases: DTP human tumour cell line panel, 48 h
# ACHN renal = tested on: ACHN renal
# RPMI-8226 leukemia = tested on: RPMI-8226 leukemia
# SNB-19 CNS = tested on: SNB-19 CNS
# SK-MEL-2 melanoma = tested on: SK-MEL-2 melanoma
# COLO 205 colon = tested on: COLO 205 colon
# SF-295 CNS = tested on: SF-295 CNS
# HL-60(TB) leukemia = tested on: HL-60(TB) leukemia
# UACC-62 melanoma = tested on: UACC-62 melanoma
# PC-3 prostate = tested on: PC-3 prostate
# HCC-2998 colon = tested on: HCC-2998 colon
Structure (SMILES),TGI (ACHN renal),TGI (RPMI-8226 leukemia),TGI (SNB-19 CNS),TGI (SK-MEL-2 melanoma),TGI (COLO 205 colon),TGI (SF-295 CNS),TGI (HL-60(TB) leukemia),TGI (UACC-62 melanoma),TGI (PC-3 prostate),GI50 (ACHN renal),GI50 (RPMI-8226 leukemia),GI50 (SNB-19 CNS),GI50 (SK-MEL-2 melanoma),GI50 (COLO 205 colon),GI50 (SF-295 CNS),GI50 (HL-60(TB) leukemia),GI50 (UACC-62 melanoma),GI50 (PC-3 prostate),TGI (HCC-2998 colon),GI50 (HCC-2998 colon)
CC1CC(C)(C)CC(OCCN2CCCCC2)(c2ccccc2)C1 (configuration not stated),30.3 µM,20.3 µM,26.7 µM,33.4 µM,21.8 µM,22.9 µM,27.9 µM,29.6 µM,25.6 µM,–,–,–,–,–,–,–,–,–,–,–
Oc1ccccc1/C=N/c1nc(-c2ccccc2)cs1,> 100 µM,> 100 µM,> 100 µM,> 100 µM,> 100 µM,> 100 µM,> 100 µM,> 100 µM,> 100 µM,32.2 µM,27.5 µM,> 100 µM,> 100 µM,57.7 µM,> 100 µM,36 µM,34.5 µM,53.7 µM,–,–
CCN(CCCl)c1cc(CN(C)C)cc(NC(=O)c2ccc(C(=O)Nc3cccc(N(CCCl)NN)c3)cc2)c1,0.233 µM,31.8 µM,–,0.181 µM,0.199 µM,12.5 µM,13.1 µM,0.324 µM,0.0661 µM,–,–,–,–,–,–,–,–,–,0.298 µM,–
COc1ccc(/C=C2\N=C3N(Cc4ccccc4)C=C(N)N3C2=O)cc1,> 100 µM,–,48.2 µM,> 100 µM,> 100 µM,> 100 µM,> 100 µM,> 100 µM,> 100 µM,–,–,–,–,–,–,–,–,–,> 100 µM,–
Cc1cc(C)c(C2=NO[C@@H]3[C@H]2C(=O)C=C2N(Cc4ccccc4)CCO[C@@]23O)c(C)c1,–,> 100 µM,> 100 µM,> 100 µM,> 100 µM,> 100 µM,> 100 µM,> 100 µM,–,–,–,–,–,–,–,–,–,–,> 100 µM,–
COc1ccc(C2CC(c3cccc(Nc4ccncc4)c3)=NN2c2ccccc2)cc1 (configuration not stated),3.28 µM,–,5.79 µM,5.01 µM,6.14 µM,3.32 µM,4.06 µM,3.21 µM,3.38 µM,1.81 µM,–,2.2 µM,2.39 µM,2.66 µM,1.8 µM,2 µM,1.74 µM,1.68 µM,3.01 µM,1.61 µM
CCOC(=O)CC1(N)CC2c3ccccc3OC(=O)C2C(=O)N1 (configuration not stated),> 100 µM,> 100 µM,> 100 µM,> 100 µM,> 100 µM,–,> 100 µM,> 100 µM,> 100 µM,–,–,–,–,–,–,–,–,–,> 100 µM,–
Nc1c(-c2ccccc2)c2ccc([N+](=O)[O-])cc2c(=O)n1-c1cccc(C(=O)O)c1,> 100 µM,> 100 µM,> 100 µM,> 100 µM,–,> 100 µM,> 100 µM,> 100 µM,> 100 µM,–,–,–,–,–,–,–,–,–,> 100 µM,–
COc1cc2c(cc1OCCN1CCN(CCOc3cc4c(cc3OC)C(=O)N3CCC[C@H]3C=N4)CC1)N=C[C@@H]1CCCN1C2=O,> 91.6 µM,15.4 µM,> 100 µM,58.7 µM,> 90.4 µM,67.3 µM,> 100 µM,40 µM,> 93.9 µM,–,–,–,–,–,–,–,–,–,–,–
CCOC(=O)CCC(C(=O)OCC)n1nnc2cc(Nc3c(C)[n+]([O-])c4cc(Cl)ccc4[n+]3[O-])ccc21 (configuration not stated),> 100 µM,> 100 µM,> 100 µM,> 100 µM,> 100 µM,> 100 µM,> 100 µM,> 100 µM,> 100 µM,–,–,–,–,–,–,–,–,–,–,–
CN(C)CCCNC(=O)N/N=C/c1ccccn1,> 10 µM,> 10 µM,–,–,> 10 µM,> 10 µM,> 10 µM,> 10 µM,> 10 µM,–,–,–,–,–,–,–,–,–,> 10 µM,–
N#Cc1nc(-c2ccsc2)oc1N,> 100 µM,> 100 µM,> 100 µM,> 100 µM,–,–,> 100 µM,> 100 µM,> 100 µM,–,–,–,–,–,–,–,–,–,–,–
c1ccc(CN2CCC(CNc3ncnc4ccccc34)C2)cc1 (configuration not stated),> 100 µM,38.7 µM,> 100 µM,> 100 µM,> 100 µM,> 100 µM,> 100 µM,> 100 µM,> 100 µM,–,–,–,–,–,–,–,–,–,–,–
CCOC(=O)/C=C(/OCC)[C@@H]1C(C(=O)c2ccc(Cl)cc2)[C@@H]1/C(=C\C(=O)OCC)OCC (some centres not stated),> 69.1 µM,> 23.1 µM,> 100 µM,> 100 µM,27.4 µM,> 88.9 µM,37.5 µM,> 100 µM,> 100 µM,–,–,–,–,–,–,–,–,–,–,–
O=c1[nH]c(NCCCCCO)nc2nc[nH]c12,> 100 µM,> 100 µM,> 100 µM,> 100 µM,> 100 µM,–,> 100 µM,> 100 µM,> 100 µM,–,–,–,–,–,–,–,–,–,> 100 µM,–
CC(C)(C)c1cc(C(C)(C)C)c2sc(=O)oc2c1O,24.8 µM,> 100 µM,32.2 µM,29.1 µM,33.7 µM,23.9 µM,19.6 µM,–,28 µM,–,–,–,–,–,–,–,–,–,–,–
Cc1cc(C)n(C(=CC(=O)C(Cl)Cl)n2nc(C)cc2C)n1,22.3 µM,3.69 µM,41.3 µM,25.7 µM,40 µM,31.7 µM,18.1 µM,7.84 µM,29.5 µM,–,–,–,–,–,–,–,–,–,–,–
O=C(O)C1C2OC(C(Br)C2Br)C1C(=O)O (configuration not stated),> 100 µM,> 100 µM,> 100 µM,> 100 µM,> 100 µM,> 100 µM,> 100 µM,> 100 µM,> 100 µM,–,–,–,–,–,–,–,–,–,–,–
CC(C)C(Nc1c2ccccc2[n+](C)c2ccccc12)C(=O)O (configuration not stated),> 100 µM,> 100 µM,> 100 µM,> 100 µM,> 100 µM,> 100 µM,> 100 µM,> 100 µM,–,–,–,–,–,–,–,–,–,–,> 100 µM,–
CC1(c2ccc(Cl)cc2)c2ccccc2C(=O)N1CCCN1C(=O)c2ccccc2C1=O (configuration not stated),> 100 µM,> 100 µM,78.5 µM,46.3 µM,36.2 µM,67 µM,> 100 µM,> 100 µM,> 100 µM,–,–,–,–,–,–,–,–,–,–,–
COc1cc(-c2cc(OC)c(OC)c3ccc(Br)cc23)c2cc(Br)ccc2c1OC,51.4 µM,51.7 µM,> 100 µM,56 µM,> 100 µM,43.8 µM,–,47.7 µM,58 µM,–,–,–,–,–,–,–,–,–,92 µM,–
